Experiment [1] can be described thus: blood ketone level over time after administration of sodium beta-hydroxybutyrate. Type of experiment: in vivo, human. To be noted: 5 mg of sodium R-beta-hydroxybutyrate (so in the source); average of 4 subjects; 30, 60, 90, 120 and 180 minutes.
Experiment [2] in a line: blood ketone levels after R-, L- or D,L-beta-hydroxybutyrate. It counts as in vivo, human. As to conditions: 5 g or 10 mg (so in the source). On the procedure:
Individuals were 5 g or 10 mg of R-beta-hydroxybutyrate, L-beta-hydroxybutyrate, or D,L-beta-hydroxybutyrate and blood ketone levels were measured.

The nature of experiment [3]: glucose challenge test (75 g glucose), blood glucose levels. It counts as in vivo, human. On the procedure: Five subjects were subject to three separate glucose challenge tests (75 g glucose) after administration of 500 mg berberine (BB), 250 mg of dihydroberberine (DHBB) or 500 dihydroberberine. Blood was drawn prior to administration and after 30, 60, 90, 120, and 180 minutes. FIG. 1 illustrates the results of the administration protocol. FIG. 1 illustrates the average blood glucose level of the 5 subjects at each of the times.
As in Example 1, five subjects were subject to three separate glucose challenge tests (75 g glucose) after administration of 500 mg berberine (BB), 250 mg of dihydroberberine (DHBB) or 500 dihydroberberine. FIG. 2 illustrates a ranking which compositions caused the lowest blood glucose levels during a oral glucose challenge. […] For example, in some individuals (e.g., individuals with moderate glucose tolerance) may achieve better blood glucose control when administered a lower dosage of DHBB.
Five subjects were subject to three separate glucose challenge tests (75 g glucose) approximately 25 minutes after administration of 500 mg berberine (BB), 250 mg of dihydroberberine (DHBB) or 500 dihydroberberine. Blood was drawn prior to administration and after 30, 60, 90, 120, and 180 minutes and tested for glucose levels. FIG. 4 illustrates the results of the administration protocol.

Experiment [4] in a line: glucose challenge test, blood ketone levels. It counts as in vivo, human. As to conditions: 250 mg DHBB alone or with 5 mg sodium beta-hydroxybutyrate; one subject; 120 minutes. On the procedure:
A subject was subject to a glucose challenge test (75 g glucose) after administration of 250 mg dihydroberberine (DHBB) and a glucose challenge test after administration of 250 mg dihydroberberine (DHBB) along with 5 mg of beta-hydroxybutyrate (e.g., 5 mg sodium beta-hydroxybutyrate).

Experiment [5] can be described thus: mental acuity testing (tracking, saccades, processing speed, response accuracy). Type of experiment: in vivo, human. As to the method: Processing speed testing was performed (e.g, processing speed is considered a true measure of cognitive performance). […] Response accuracy was also tested.
The nature of experiment [6]: Bench Press strength and power testing at 50% of 1-RM. Type of experiment: in vivo, human. As to conditions: 5 g; for increase in minimum power: averages of power measurements. As to the method: FIGS. 19A-19B illustrate the results of the testing. […] Thus, R-beta-hydroxybutyrate experienced a greater than expected impact when compared with D,L-beta-hydroxybutyrate. The individuals were also tested for power. FIG. 19C illustrates the results of the testing (e.g., averages of power measurements). As illustrated, R-beta-hydroxybutyrate administration increased minimum power by 26%, while the DL-beta-hydroxybutyrate administration raised power by 2%.

Experiment [7] is described as follows: Respiratory exchange ratio (RER). It counts as in vivo, human. To be noted: 10 subjects. On the procedure: 10 subjects were administered approximately 5 g or 10 g of D,L-beta-hydroxybutyrate or R-beta-hydroxybutyrate, and Respiratory exchange ratio was examined (RER, a ratio of carbon dioxide/oxygen).
Experiment [8] in a line: 2 km time test on wingate cycle ergometer. Type of experiment: in vivo, human. As to conditions: 10 g, 30 minutes before 2 km time test. On the procedure:
Five healthy individual were given a 2 km time test (e.g., 4 cycles of low to severely intense exercise on a […] ergometer) 30 minutes after administration of a placebo, 10 g of R-beta-hydroxybutyrate, and 10 g of […]. FIG. 12 illustrates the average blood ketone levels and FIG. 13 illustrates the percentage improvement over the administration of the placebo. […] FIG. 14 illustrates the perceived exertion experienced by the individuals. […] Thus, the R-beta-hydroxybutyrate has an unexpectedly impact on ketone levels and performance.

In a further experiment the test system is Lipoprotien lipase (LPL). Kind of experiment: average Lipoprotien lipase (LPL) in rats. Type of experiment: in vivo. To be noted: standard diet plus salt equivalent to 5 g or 10 g; 10 rats per grouping. An excerpt:
FIG. 11 illustrates the average Lipoprotien lipase (LPL) in the rats. Since LPL is needed to transport fat into adipose tissue, lowering LPL levels would inhibit fat storage and encourage usage of fat storages.

Experiment [9] in a line: fasting glucose after administration. Type of experiment: in vivo, human. As to conditions: same individual; 104 before administration. As to the method:
(§1) An individual with high C-reactive protein, which is associated with inflammation, was administered R-beta-hydroxybutyrate. […] In addition, fasting glucose was decreased (e.g., 104 to 95).

The nature of experiment [10]: perceived hunger, satiety and perceived energy. Type of experiment: in vivo, human. As to the method:
FIGS. 18A-18C illustrate the results of the testing. FIG. 18A illustrates perceived hunger, FIG. 18B illustrates perceived satiety, and FIG. 18C illustrates perceived energy. […] R-beta-hydroxybutyrate sustained elevated perceived energy levels from 0 minutes at 60, 90, and 120 minutes post consumption, as opposed to D,L-beta-hydroxybutyrate.

The nature of experiment [11]: motor function testing by eye movements in an individual with Parkinson's disease. It counts as in vivo, human. As to conditions: approximately 10 g; approximately 30 minutes after administration; one Parkinson's patient, pre vs post. The text has this:
The testing included a right-eye visual and motor performance apparatus to track motor function through eye movements. FIG. 8 illustrates chart illustrating the results of the motor skill testing following an example implementation of administration of R-beta-hydroxybutyrate. FIG. 8 illustrates average results for a similar non-Parkinson's population, the patient pre-administration of R-beta-hydroxybutyrate, and the patient post-administration of R-beta-hydroxybutyrate.

Another experiment concerns C-reactive protein. The experiment is described as follows: C-reactive protein levels after administration. It counts as in vivo, human. As to conditions: one individual with high C-reactive protein; 62.5 before administration. On the procedure:
as §1

A short description of experiment [12]: Xray absorptiometry, fat mass and lean mass. It counts as in vivo, human. To be noted: 5 g twice daily for 3 months; one individual. As to the method: Xray absorptiometry was performed to determine the impact of the administration of R-beta-hydroxybutyrate on fat loss. […] As illustrated, the individual experienced a greater than approximately 10% decrease in fat mass. […] Thus, the R-beta-hydroxybutyrate may cause weight loss through fat loss rather than lean mass (e.g., muscle mass).

Experiment [13] in a line: lifespan of rats on low-fat standard American diet. Type of experiment: in vivo, Fischer 344 rats. As to conditions: supplemented versus standard diet at 20 months. The text has this: Sixteen rats (Fischer 344 rats) were studied for the effect of R-beta-hydroxybutyrate on lifespan. A first grouping of eight rats were fed an equivalent to a low-fat standard American diet and a second grouping of eight rats were fed the same equivalent to a low-fat standard American diet and supplemented with R-beta-hydroxybutyrate salt (e.g., sodium R-beta-hydroxybutyrate). The second grouping of rats were supplemented with the R-beta-hydroxybutyrate salt at middle age. FIG. 7 illustrates the average lifespans of the groupings of rats. […] Since the rat study was performed as an approximation of impact in humans, the addition of R-beta-hydroxybutyrate to a standard American low-fat diet may increase lifespan.

The next experiment relates to superoxide dismutase 2. The experiment is described as follows: superoxide dismutase 2 levels in the brain. Type of experiment: in vivo. As to conditions: e.g. 10 g; standard or ketogenic diet. On the procedure:
Individuals were given a standard diet or ketogenic diet. Some individuals were administered R-beta-hydroxybutyrate (e.g., 10 g).

The mark [14] stands for this setting: before vs after, 5 resistance trained males, 50% of 1-RM.

The values that follow come from US12521378B2, “Administration of R-beta-hydroxybutyrate salt blend and related compounds in humans” (priority 2016, dated 2026).

Turning to `C[C@@H](O)CC(=O)[O-].[Na+]` [sodium R-beta-hydroxybutyrate], the “blood ketone level compared with 10 g of D,L-beta-hydroxybutyrate” value in [1] is on record as “approximately the same blood ketone level”.
Turning to `C[C@H](O)CC(=O)O` [L-beta-hydroxybutyrate], the blood ketone levels entry in experiment [2] is reported as “does not decrease blood ketones”.
Consider `COc1ccc2c(c1OC)CN1CCc3cc4c(cc3C1=C2)OCO4` [dihydroberberine], for which the “control of blood glucose levels during oral glucose challenge (ranking)” value in experiment [3] (250 mg DHBB vs 500 mg DHBB, 5 subjects) is “control blood glucose levels better than even 500 mg of DHBB”. Also, in experiment [3] (250 mg or 500 dihydroberberine vs 500 mg berberine, 5 subjects), the “blood glucose during oral glucose challenge versus berberine” value was “lower blood glucose than administration of berberine in most individuals”. Further, in experiment [3] (75 g glucose challenge, 250 mg or 500 dihydroberberine vs 500 mg berberine, average of 5 subjects, 30-180 minutes), the “fluctuations in blood glucose level” value was “less fluctuations in blood glucose level than berberine”. Further, the “blood glucose levels relative to fasting blood glucose” value in [3] (75 g glucose challenge, dihydroberberine vs 500 mg berberine, 5 subjects) was “keep blood glucose levels closer to fasting blood glucose than berberine”. In addition, in experiment [3] (individuals with moderate baseline glucose levels, glucose challenge about 25 minutes after administration, vs 500 mg berberine), the “moderation of blood glucose levels” value was “moderates blood glucose levels better than even double the quantity of berberine”. Moreover, the “blood ketone levels after glucose challenge” value in experiment [4] was “unexpectedly increased even 120 minutes after the glucose challenge”.
Turning to `CC(O)CC(=O)O` (racemic) [D,L-beta-hydroxybutyrate, reference compound], the “increase of response accuracy” value in [5] (DL-beta-hydroxybutyrate) was 12.7%. Also, in experiment [5] (e.g. 5 g), the “Horizontal Saccades, performance improvement” value amounted to 3.2% and the “improvement of processing speed” value was “approximately 18%”. In addition, in experiment [5] (e.g. 10 g), the “Circular Tracking, improvement in tracking accuracy” value is reported as “no improvement” and the “Vertical Tracking, improvement of performance” value came to 4.6%. The “increase in minimum power” value in [6] is given as 2%. The “decrease in Bench Press test result” value in [6] (setting [14]) worked out at 2%. Further, the “increase of RER” value in [7] (D,L-beta-hydroxybutyrate, more than 5 g) is reported as 17%. Further, in experiment [2], the blood ketone levels result is on record as “does not lower blood ketone levels to the same extent as R-beta-hydroxybutyrate”. Besides, in [8], the perceived exertion result was “did not feel an impact in perceived exertion”.
Consider `C[C@@H](O)CC(=O)O` [R-beta-hydroxybutyrate, (R)-3-Hydroxybutyric acid], for which, in the experiment with Lipoprotien lipase (LPL), the LPL levels entry is given as “decreases LPL levels”. In experiment [5] (e.g. 5 g), the “Horizontal Saccades, improvement relative to D,L-beta-hydroxybutyrate” value is on record as 4 times; the “Horizontal Saccades, performance improvement” value worked out at 13.8%; the “improvement of processing speed” value is recorded as 27.7%; the “increase of response accuracy” value stood at 37 percentage points. Besides, in experiment [5] (e.g. 10 g), the “Circular Tracking, improvement in tracking accuracy” value is reported as “approximately 3%”; the “Vertical Tracking, improvement of performance” value is given as 13.8%; the “Vertical Tracking, improvement relative to D,L-beta-hydroxybutyrate” value is “approximately 3 times”. Also, the “fasting glucose after administration” value in experiment [9] is on record as 95. For the same compound, in [6], the “increase in minimum power” value is 26%. Besides, in experiment [6] (setting [14]), the “increase in Bench Press test result” value is reported as 11%. In addition, in [10] (0 to 30 minutes post consumption, 5 g-10 g), the “improvement of perceived energy relative to D,L-beta-hydroxybutyrate” value was “double that of D,L-beta-hydroxybutyrate”. For the same compound, the “raise of perceived energy” value in experiment [10] (5 g-10 g) is 18%. For the same compound, the “improvement of satiety levels relative to DL-beta-hydroxybutyrate” value in [10] (30 minutes post consumption, relative to baseline, 5 g-10 g) is listed as 2.3 ×. Further, in [10] (in vivo), the “raise of perceived energy relative to peak increase with DL-beta-hydroxybutyrate” value is on record as “more than 2 times”. The “time for which raised perceived energy was sustained” value in experiment [10] (post ingestion) amounted to 2 h. Moreover, in [11], the motor function entry is given as “increased motor function”. Moreover, the “C-reactive protein levels after administration” value in the experiment on C-reactive protein worked out at 4.4. In addition, in experiment [12], the “decrease in fat mass” value is on record as above 10% and the lean mass result is on record as “maintaining lean mass”. For the same compound, the “reduction of RER relative to D,L-beta-hydroxybutyrate” value in experiment [7] (10 g) is “approximately 3 ×”. For the same compound, the “rats with increased lifespan” value in experiment [13] is listed as at least 38.5%. Further, in the experiment with superoxide dismutase 2, the “superoxide dismutase 2 levels (SOD) in the brain” value is “numerically increase superoxide dismutase 2 levels”. Besides, the perceived exertion entry in [8] is given as “perceived exertion improvement”. For the same compound, in [8] (five healthy individuals), the “blood ketone levels compared with D,L-beta-hydroxybutyrate” value was “increased more than double”. Moreover, the “performance (improvement in time) compared with D,L-beta-hydroxybutyrate” value in [8] (improvement over placebo) is given as “increased by more than double”.
